This is an account of results in US20180179198A1, “TRICYCLIC MODULATORS OF TNF SIGNALING” (AbbVie Inc., priority 2015, published 2018).

For this assay, the target named is TNFα trimer (Homo sapiens, UniProt P01375). Nature of the assay: TNFα FP Competitive Binding Assay. As to conditions: fluorescence polarization competition; 20 nM TNFα trimer, 1 nM OregonGreen488 probe; read-out: TNF IC50 (TNFα FP binding assay IC50). As to the method:
TNFα FP Competitive Binding Assay
• 1. Assay Buffer: Prepare 1× Assay Buffer (Water with 47 mM HEPES, 47 mM NaCl, 0.9 mM EDTA, 0.0071% Triton X-100) by adding 25 mL of 1 M HEPES, 5 mL of 5 M NaCl, 1 mL of 0.5 M EDTA, and 375 μL of a 10% Triton X-100 stock to a fresh 500 mL bottle of water. • 2. Assay Mixture: Prepare fresh Assay Mixture containing 20 nM TNFα trimer (60 nM protein) and 1 nM 2′,7′-difluoro-3′,6′-dihydroxy-N-(2-(2-(2-((4-(isoquinolin-8-yl)-3-(4-(isoquinolin-8-yl)phenethoxy)benzyl)oxy)ethoxy)ethoxy)ethyl)-3-oxo-3H-spiro[isobenzofuran-1,9′-xanthene]-5-carboxamide probe in 1× Assay Buffer.
Compound Plate Preparation
Manual 12-point 1:3 Dilution Plates: (384 well polypropylene plates)
Top concentration of compounds, 10 mM in DMSO, dispensed in rows A-O in columns 1 and 13. Compounds are serially diluted 1:3 with DMSO in columns 2-12 or 14-24 using a 16-channel Matrix pipettor. Plates stored at −20° C.
Discovery Preps 12-point 1:3 Dilution Plates: (384 well assay plates)
Top concentration, 5 mM in DMSO, of compounds placed in rows A-O in columns 1 and 13. Compounds are serially diluted 1:3 with DMSO in columns 2-12 or 14-24. Compound solutions are dispensed into replicate assay plates at 410 nL per well. Plates stored at 4° C.
TNFα FP Competitive Binding Assay Protocol
• 1. Compound plates are warmed to rt. • 2. Fresh Assay Mixture is prepared. • 3. Assay Mixture (20 μL) is dispensed each well of 384 assay plates using a Thermo Multidrop Combi or 16-channel Matrix pipettor. If Manual 12-point 1:3 Dilution Plates are to be tested, Assay Mix is dispensed into empty plates. Discovery Preps 12-point 1:3 Dilution Plates already contain 410 nL compound solution in DMSO. • 4. For Manual 12-point 1:3 Dilution Plates, 0.7 μL is manually transferred using a 16-channel Matrix pipettor to replicate assay plates containing 20 μL Assay Mixture for a final top compound concentration of 338 μM (3.4% DMSO). • 5. For Discovery Preps 12-point 1:3 Dilution Plates, 20 μL Assay Mixture added the 410 nL compound solution already in the plates yields a final top compound concentration of 100 μM (2.0% DMSO). • 6. Background subtraction controls are wells P1-P8 containing only Assay Buffer. The low % inhibition controls are wells P9-P16 containing only Assay Mix. The high % inhibition are wells P17-P24 containing only 1 nM 2′,7′-difluoro-3′,6′-dihydroxy-N-(2-(2-(2-((4-(isoquinolin-8-yl)-3-(4-(isoquinolin-8-yl)phenethoxy)benzyl)oxy)ethoxy)ethoxy)ethyl)-3-oxo-3H-spiro[isobenzofuran-1,9′-xanthene]-5-carboxamide probe in 1× Assay Buffer. • 7. Plates are incubated at […] for 18-24 h in 37° C. incubator (CO2 is off). • 8. Prior to reading the assay, the plates are placed in a dark cabinet to equilibrate at rt for one hour. • 9. Background-subtracted fluorescence polarization (mP) is measured using a PerkinElmer Envision plate reader. • 10. Raw data is entered into Assay Explorer and dose-response curves are generated using a variable slope curve.
For orientation: In fluorescence polarisation assays a small probe gives low polarisation when free and higher when bound to something large.

TNFα trimer, sequence (P01375 77-233 limits assumed): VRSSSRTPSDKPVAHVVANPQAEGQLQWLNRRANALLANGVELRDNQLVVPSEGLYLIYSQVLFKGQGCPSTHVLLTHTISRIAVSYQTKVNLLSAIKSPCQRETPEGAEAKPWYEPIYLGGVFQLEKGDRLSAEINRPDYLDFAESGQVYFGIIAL

Usually IC50 stands for the concentration that inhibits the measured activity by half. “1-((R)-4-(5-((R)-8-(3-(Hydroxymethyl)phenyl)-7,8-dihydro-6H-pyrrolo[2′,1′:2,3]imidazo[4,5-b]pyridin-2-yl)pyrimidin-2-yl)-2-methylpiperazin-1-yl)ethanone [Example 45]”: the IC50 fell in the range of 1 to 10 µM.
Under `c1ccc(C2COCc3nc4ccc(-c5cnc(N6CCOCC6)nc5)cc4n32)cc1` (single isomer, unassigned) [Example 21] stands < 1 µM.
As for `O=C1NCC2CN(c3ncc(-c4ccc5nc6n(c5n4)[C@@H](c4ccccc4)CC6)cn3)CCN12` (single isomer, unassigned) [Example 30], the half-maximal inhibitory concentration (IC50) is < 1 µM.
For `O=C1NCC2CN(c3ncc(-c4ccc5nc6n(c5n4)C(c4ccccc4)COC6)cn3)CCN12` (stereo in doubt) [Example 58, (8aS)-7-(5-(9-Phenyl-8,9-dihydro-6H-pyrido[3′,2′:4,5]imidazo[2,1-c][1,4]oxazin-2-yl)pyrimidin-2-yl)hexahydroimidazo[1,5-a]pyrazin-3(2H)-one] the value was < 1 µM.
Under `C[C@]1(c2ccccc2)CCc2nc3ccc(-c4cnc(N5CCC(O)CC5)nc4)nc3n21` [(R)-1-(5-(8-methyl-8-phenyl-7,8-dihydro-6H-pyrrolo[2′,1′:2,3]imidazo[4,5-b]pyridin-2-yl)pyrimidin-2-yl)piperidin-4-ol] stands < 1 µM; under `CC(C)(O)c1ncc(-c2ccc3nc4n(c3n2)[C@@](C)(c2ccccc2)CC4)cn1` [(R)-2-(5-(8-methyl-8-phenyl-7,8-dihydro-6H-pyrrolo[2′,1′:2,3]imidazo[4,5-b]pyridin-2-yl)pyrimidin-2-yl)propan-2-ol], < 1 µM; under `C[C@@]1(c2ccccc2)CCc2nc3ccc(-c4cnc(N5CCC(O)CC5)nc4)nc3n21` [(S)-1-(5-(8-methyl-8-phenyl-7,8-dihydro-6H-pyrrolo[2′,1′:2,3]imidazo[4,5-b]pyridin-2-yl)pyrimidin-2-yl)piperidin-4-ol], 10 to 100 µM.
Take `CC(C)(O)c1ncc(-c2ccc3nc4n(c3n2)[C@](C)(c2ccccc2)CC4)cn1` [(S)-2-(5-(8-methyl-8-phenyl-7,8-dihydro-6H-pyrrolo[2′,1′:2,3]imidazo[4,5-b]pyridin-2-yl)pyrimidin-2-yl)propan-2-ol]: the 50% inhibitory concentration (IC50) is 10 to 100 µM.
As for `CNS(=O)(=O)c1ccc(-c2ccc3nc4n(c3c2)C(c2ccccc2)CC4)cc1` (stereo not drawn) [A.1], the half-maximal inhibitory concentration (IC50) is < 1 µM.
Under `CCS(=O)(=O)c1ccc(-c2ccc3nc4n(c3c2)C(c2ccccc2)CC4)cc1` (stereo not drawn) [A.2] stands < 1 µM; under `O=S(=O)(c1ccc(-c2ccc3nc4n(c3c2)C(c2ccccc2)CC4)cc1)N1CCOCC1` (stereo not drawn) [A.3], < 1 µM.
Take `CS(=O)(=O)NCc1ccc(-c2ccc3nc4n(c3c2)C(c2ccccc2)CC4)cc1` (stereo not drawn) [A.4]: the IC50 was < 1 µM.
Under `CS(=O)(=O)c1ccc(-c2ccc3nc4n(c3c2)C(c2ccccc2)CC4)cc1` (stereo not drawn) [A.5] stands < 1 µM.
For `NS(=O)(=O)c1ccc(-c2ccc3nc4n(c3c2)C(c2ccccc2)CC4)cc1` (stereo not drawn) [A.6] the value was < 1 µM; for `N#CCc1ccc(-c2ccc3nc4n(c3c2)C(c2ccccc2)CC4)cc1` (stereo not drawn) [A.7], < 1 µM.
As to `c1ccc(C2CCc3nc4ccc(-c5cnc(C6CC6)nc5)cc4n32)cc1` (stereo not drawn) [A.8], the IC50 was < 1 µM.
For `CCS(=O)(=O)c1ccc(-c2ccc3nc4n(c3c2)C(c2ccccc2)CC4)cn1` (stereo not drawn) [A.9] the value was < 1 µM.
Under `CN(C)C(=O)c1ccc(-c2ccc3nc4n(c3c2)C(c2ccccc2)CC4)cc1` (stereo not drawn) [A.10] stands < 1 µM.
Regarding `CCN(C)C(=O)c1ccc(-c2ccc3nc4n(c3c2)C(c2ccccc2)CC4)cc1` (stereo not drawn) [A.11], the IC50 was < 1 µM.
Regarding `CN(C)c1ccc(-c2ccc3nc4n(c3c2)C(c2ccccc2)CC4)cn1` (stereo not drawn) [A.12], the concentration for half-maximal inhibition (IC50) fell in the range of 1 to 10 µM.
Under `Cc1cc(-c2ccc3nc4n(c3c2)C(c2ccccc2)CC4)ccn1` (stereo not drawn) [A.13] stands 1 to 10 µM.
Turning to `Cc1ccc(-c2ccc3nc4n(c3c2)C(c2ccccc2)CC4)cn1` (stereo not drawn) [A.14], the IC50 fell in the range of 1 to 10 µM.
For `CCOc1cncc(-c2ccc3nc4n(c3c2)C(c2ccccc2)CC4)c1` (stereo not drawn) [A.15] the value was 1 to 10 µM; for `CSc1ccc(-c2ccc3nc4n(c3c2)C(c2ccccc2)CC4)cn1` (stereo not drawn) [A.16], 1 to 10 µM.
For `c1ccc(C2CCc3nc4ccc(-c5ccc(N6CCNCC6)nc5)cc4n32)cc1` (stereo not drawn) [A.17] the value was 1 to 10 µM; for `N#CCOc1cccc(-c2ccc3nc4n(c3c2)C(c2ccccc2)CC4)c1` (stereo not drawn) [A.18], 1 to 10 µM; for `O=C(NC1CC1)c1ccc(-c2ccc3nc4n(c3c2)C(c2ccccc2)CC4)cc1` (stereo not drawn) [A.19], 1 to 10 µM.
For `CN1CCN(c2ccc(-c3ccc4nc5n(c4c3)C(c3ccccc3)CC5)cn2)CC1` (stereo not drawn) [A.20] the value was 1 to 10 µM; for `c1ccc(C2CCc3nc4ccc(-c5cnn(Cc6cccnc6)c5)cc4n32)cc1` (stereo not drawn) [A.21], 1 to 10 µM.
As to `c1ccc(C2CCc3nc4ccc(-c5cccnc5)cc4n32)cc1` (stereo not drawn) [A.22], the IC50 was 1 to 10 µM.
Under `Nc1ncc(-c2ccc3nc4n(c3c2)C(c2ccccc2)CC4)cn1` (stereo not drawn) [A.23] stands 1 to 10 µM.
For `c1ccc(C2CCc3nc4ccc(-c5cncnc5)cc4n32)cc1` (stereo not drawn) [A.24] the value was 1 to 10 µM; for `Cc1cncc(-c2ccc3nc4n(c3c2)C(c2ccccc2)CC4)c1` (stereo not drawn) [A.25], 1 to 10 µM; for `O=C(NCC1CCCO1)c1ccc(-c2ccc3nc4n(c3c2)C(c2ccccc2)CC4)cc1` (stereo not drawn) [A.26], 1 to 10 µM.
Under `Nc1ccc(-c2ccc3nc4n(c3c2)C(c2ccccc2)CC4)cn1` (stereo not drawn) [A.27] stands 10 to 100 µM; under `Cc1c(-c2ccc3nc4n(c3c2)C(c2ccccc2)CC4)cnn1C` (stereo not drawn) [A.28], 10 to 100 µM; under `CN(C)C(=O)c1cccc(-c2ccc3nc4n(c3c2)C(c2ccccc2)CC4)c1` (stereo not drawn) [A.29], 10 to 100 µM.
With `CS(=O)(=O)c1cccc(-c2ccc3nc4n(c3c2)C(c2ccccc2)CC4)c1` (stereo not drawn) [A.30], the half-inhibitory concentration (IC50) lay within 10 to 100 µM.
Under `CS(=O)(=O)c1cncc(-c2ccc3nc4n(c3c2)C(c2ccccc2)CC4)c1` (stereo not drawn) [A.31] stands 10 to 100 µM.
Under `Cc1ncccc1-c1ccc2nc3n(c2c1)C(c1ccccc1)CC3` (stereo not drawn) [A.32] stands 10 to 100 µM; under `CC(C)S(=O)(=O)c1ccc(-c2ccc3nc4n(c3c2)C(c2ccccc2)CC4)cc1` (stereo not drawn) [A.33], < 1 µM; under `N#CCOc1ccc(-c2ccc3nc4n(c3c2)C(c2ccccc2)CC4)cc1` (stereo not drawn) [A.34], 1 to 10 µM.
For `CCNC(=O)c1ccc(-c2ccc3nc4n(c3c2)C(c2ccccc2)CC4)cc1` (stereo not drawn) [A.35] the value was 1 to 10 µM.
`NC(=O)c1ccc(-c2ccc3nc4n(c3c2)C(c2ccccc2)CC4)cc1` (stereo not drawn) [A.36]: the IC50 was 1 to 10 µM.
For `c1ccc(C2CCc3nc4ccc(-c5ccc6c(c5)OCO6)cc4n32)cc1` (stereo not drawn) [A.37] the value was 1 to 10 µM; for `COc1cncc(-c2ccc3nc4n(c3c2)C(c2ccccc2)CC4)c1` (stereo not drawn) [A.38], 1 to 10 µM; for `COCCNC(=O)c1ccc(-c2ccc3nc4n(c3c2)C(c2ccccc2)CC4)cc1` (stereo not drawn) [A.39], 1 to 10 µM.
As for `CNC(=O)c1ccc(-c2ccc3nc4n(c3c2)C(c2ccccc2)CC4)cc1` (stereo not drawn) [A.40], the IC50 fell in the range of 1 to 10 µM.
For `N#CCc1cccc(-c2ccc3nc4n(c3c2)C(c2ccccc2)CC4)c1` (stereo not drawn) [A.41] the value was 1 to 10 µM.
Under `CS(=O)(=O)NCc1cccc(-c2ccc3nc4n(c3c2)C(c2ccccc2)CC4)c1` (stereo not drawn) [A.42] stands 1 to 10 µM; under `CNC(=O)c1cccc(-c2ccc3nc4n(c3c2)C(c2ccccc2)CC4)c1` (stereo not drawn) [A.43], 1 to 10 µM.
